The record followed here is patent US20260317320A1, “C5AR1 ANTAGONISTS AND USES THEREOF” (Vanqua Bio, Inc., priority 2022, published 2026).

One assay has as its target T1, complement C5a receptor 1 (C5aR1) (Homo sapiens, UniProt P21730).
T1 construct: β-galactosidase fragment (PathHunter enzyme complementation); host or cells: CHO-K1 (PathHunter CHO-K1 C5aR1 β-arrestin cell line)
T1 sequence (P21730 1-350): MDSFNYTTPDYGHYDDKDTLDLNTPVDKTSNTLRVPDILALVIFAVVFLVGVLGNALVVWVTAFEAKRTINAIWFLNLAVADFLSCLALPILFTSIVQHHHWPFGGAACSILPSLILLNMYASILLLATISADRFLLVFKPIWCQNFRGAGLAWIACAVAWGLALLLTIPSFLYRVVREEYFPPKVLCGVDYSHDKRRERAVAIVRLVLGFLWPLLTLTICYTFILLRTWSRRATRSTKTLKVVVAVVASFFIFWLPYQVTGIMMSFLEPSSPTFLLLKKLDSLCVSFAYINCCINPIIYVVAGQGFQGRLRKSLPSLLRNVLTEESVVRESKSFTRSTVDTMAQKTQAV
Put plainly: β-arrestin recruitment via C5aR1 activation in live CHO-K1 cells (PathHunter), antagonist mode. Type of assay: cell-based.
Details: not given
The procedure:
Exemplary compounds were evaluated for classical GPCR β-arrestin recruitment via complement C5a receptor 1 (C5aR1) activation in live CHO-K1 cells. This cell line expresses two fragments of the […] protein coupled to β-arrestin and C5aR1. Complementation of the two fragments allows for the assessment of both C5aR1 agonism and antagonism. Recombinant hC5a (EC90) was used as the competing natural agonist against disclosed compounds (more information on the expanded protocol and cell line can be found on the manufacturer's website: PathHunter® CHO-K1 C5aR1 β-arrestin cell line, DiscoverX, Catalog No. 93-0557C2). […] IC50 ranges: A: IC50≤500 nM; B: 500 nM<IC50≤5 uM; C: 5 uM<IC50≤100 uM; D: IC50>100 uM.
Broadly, the IC50 is the concentration needed to halve the response being measured. `Cc1cnc2cc(C3CCN(c4c(C)cccc4F)CC3)c(=O)n(Cc3cccnc3OC(F)(F)F)c2n1` [compound 100, 7-(1-(2-Fluoro-6-methylphenyl)piperidin-4-yl)-3-methyl-5-((2-(trifluoromethoxy)pyridin-3-yl)methyl)pyrido[2,3-b]pyrazin-6(5H)-one]: the IC50 is less than 500 nM.

The same assay, now with this note: antagonist mode; recombinant hC5a (EC90) as competing natural agonist; live CHO-K1 cells; read-out: [Antagonist] B-arrestin2 recruitment: Average IC50.
Consider `Cc1nccnc1Cn1c(=O)c(C2CCN(c3ccccc3OC(F)(F)F)CC2)cc2nccnc21` [compound 108, 5-((3-Methylpyrazin-2-yl)methyl)-7-(1-(2-(trifluoromethoxy)phenyl)piperidin-4-yl)pyrido[2,3-b]pyrazin-6(5H)-one], for which the half-inhibitory concentration (IC50) was 500 to 5000 nM.
Consider `Cc1cnc2cc([C@H]3CC[C@@H](c4c(C)cccc4F)CC3)c(=O)n(Cc3nccnc3C(F)(F)F)c2n1` [99a, 7-(cis-4-(2-Fluoro-6-methylphenyl)cyclohexyl)-3-methyl-5-((3-(trifluoromethyl)pyrazin-2-yl)methyl)pyrido[2,3-b]pyrazin-6(5H)-one], for which the IC50 was in the range of 500 to 5000 nM.
For `Cc1ncc2cc(N3CCN(c4c(C)cccc4F)CC3)c(=O)n(Cc3ncccc3OC(F)F)c2n1` [compound 117, 8-((3-(Difluoromethoxy)pyridin-2-yl)methyl)-6-(4-(2-fluoro-6-methylphenyl)piperazin-1-yl)-2-methylpyrido[2,3-d]pyrimidin-7(8H)-one], the IC50 lay in the range of 500 to 5000 nM.
For the compound `Cc1cccc(F)c1C1CCN(c2cc3nccnc3n(Cc3ncccc3C(F)(F)F)c2=O)CC1` [compound 91, 7-(4-(2-fluoro-6-methylphenyl)piperidin-1-yl)-5-((3-(trifluoromethyl)pyridin-2-yl)methyl) pyrido[2,3-b]pyrazin-6(5H)-one], the IC50 is 500 to 5000 nM.
Turning to `Cc1ncc2cc(C3CCN(c4c(C)cccc4F)CC3)c(=O)n(Cc3ncccc3OC(F)F)c2n1` [compound 105, 8-((3-(Difluoromethoxy)pyridin-2-yl)methyl)-6-(1-(2-fluoro-6-methylphenyl)piperidin-4-yl)-2-methylpyrido[2,3-d]pyrimidin-7(8H)-one], the IC50 was less than 500 nM.
For the compound `Cc1cccc(F)c1N1CCC(c2cc3nccnc3n(Cc3ccccc3C(F)(F)F)c2=O)CC1` [compound 1, 7-(1-(2-Fluoro-6-methylphenyl)piperidin-4-yl)-5-(2-(trifluoromethyl)benzyl)pyrido[2,3-b]pyrazin-6(5H)-one], the IC50 is less than 500 nM.
The same measure, in the same setting: next, `Cc1cnc2cc(N3CCN(c4c(C)cccc4F)CC3)c(=O)n(Cc3nccnc3C(F)(F)F)c2n1` [compound 92, 7-(4-(2-Fluoro-6-methylphenyl)piperazin-1-yl)-3-methyl-5-((3-(trifluoromethyl)pyrazin-2-yl)methyl)pyrido[2,3-b]pyrazin-6(5H)-one]: less than 500 nM; `Cc1ncc2cc(C3CCN(c4c(C)cccc4F)CC3)c(=O)n(Cc3ncccc3OC(F)(F)F)c2n1` [compound 102, 6-(1-(2-Fluoro-6-methylphenyl)piperidin-4-yl)-2-methyl-8-((3-(trifluoromethoxy)pyridin-2-yl)methyl)pyrido[2,3-d]pyrimidin-7(8H)-one]: less than 500 nM.
Consider `Cc1ncc2cc(C3CCN(c4c(C)cccc4F)CC3)c(=O)n(Cc3ncccc3C(F)(F)F)c2n1` [compound 81, 6-(1-(2-fluoro-6-methylphenyl)piperidin-4-yl)-2-methyl-8-((3-(trifluoromethyl)pyridin-2-yl)methyl)pyrido[2,3-d]pyrimidin-7(8H)-one], for which the IC50 was less than 500 nM.
In the case of `COc1cnc2cc(C3CCN(c4c(C)cccc4F)CC3)c(=O)n(Cc3nccnc3C(F)(F)F)c2n1` [compound 76, 7-(1-(2-Fluoro-6-methylphenyl)piperidin-4-yl)-3-methoxy-5-((3-(trifluoromethyl)pyrazin-2-yl)methyl)pyrido[2,3-b]pyrazin-6(5H)-one], the IC50 was in the range of 500 to 5000 nM.
On to `COc1ccnc(F)c1N1CCC(c2cc3ncc(C)nc3n(Cc3ncccc3C(F)(F)F)c2=O)CC1` [compound 85, 7-(1-(2-Fluoro-4-methoxypyridin-3-yl)piperidin-4-yl)-3-methyl-5-((3-(trifluoromethyl)pyridin-2-yl)methyl)pyrido[2,3-b]pyrazin-6(5H)-one], for which the IC50 was less than 500 nM.
For the compound `COc1ncnc2cc(C3CCN(c4c(C)cccc4F)CC3)c(=O)n(Cc3nccnc3C(F)(F)F)c12` [compound 93, 7-(1-(2-Fluoro-6-methylphenyl)piperidin-4-yl)-4-methoxy-5-((3-(trifluoromethyl)pyrazin-2-yl)methyl)pyrido[3,2-d]pyrimidin-6(5H)-one], the half-inhibitory concentration (IC50) is more than 100000 nM.
As to `Cc1cccc(F)c1N1CCC(c2cc3nccnc3n(Cc3ncccc3OC(F)F)c2=O)CC1` [compound 98, 5-((3-(Difluoromethoxy)pyridin-2-yl)methyl)-7-(1-(2-fluoro-6-methylphenyl)piperidin-4-yl)pyrido[2,3-b]pyrazin-6(5H)-one], the IC50 is less than 500 nM.
`Cc1ncc2cc(C3CCN(c4c(C)cccc4F)CC3)c(=O)n(Cc3nccnc3C)c2n1` [compound 107, 6-(1-(2-Fluoro-6-methylphenyl)piperidin-4-yl)-2-methyl-8-((3-methylpyrazin-2-yl)methyl)pyrido[2,3-d]pyrimidin-7(8H)-one]: the IC50 was 500 to 5000 nM.
`COc1ccnc(F)c1N1CCC(c2cc3nccnc3n(Cc3ncccc3C(F)(F)F)c2=O)CC1` [compound 79, 7-(1-(2-Fluoro-4-methoxypyridin-3-yl)piperidin-4-yl)-5-((3-(trifluoromethyl)pyridin-2-yl)methyl)pyrido[2,3-b]pyrazin-6(5H)-one]: the IC50 was 500 to 5000 nM.
With `COc1ccnc(F)c1N1CCC(c2cc3ncc(C)nc3n(Cc3nccnc3C(F)(F)F)c2=O)CC1` [compound 80, 7-(1-(2-Fluoro-4-methoxypyridin-3-yl)piperidin-4-yl)-3-methyl-5-((3-(trifluoromethyl)pyrazin-2-yl)methyl)pyrido[2,3-b]pyrazin-6(5H)-one], the IC50 is 500 to 5000 nM.
`Cc1cnc2cc(C3CCN(c4cncnc4C)CC3)c(=O)n(Cc3ncccc3C(F)(F)F)c2n1` [compound 114, 3-Methyl-7-(1-(4-methylpyrimidin-5-yl)piperidin-4-yl)-5-((3-(trifluoromethyl)pyridin-2-yl)methyl)pyrido[2,3-b]pyrazin-6(5H)-one]: the IC50 was in the range of 5000 to 100000 nM.
The same measure, in the same setting: then `Cc1cnc2cc([C@H]3CC[C@@H](c4c(C)cccc4F)CC3)c(=O)n(Cc3ncccc3C(F)(F)F)c2n1` [121b, 7-(cis-4-(2-Fluoro-6-methylphenyl)cyclohexyl)-3-methyl-5-((3-(trifluoromethyl)pyridin-2-yl)methyl)pyrido[2,3-b]pyrazin-6(5H)-one], with 500 to 5000 nM.
Same read-out and setting: then `Cc1cnc2cc(C3CCN(c4c(C)cccc4F)CC3)c(=O)n(Cc3ccccc3OC(F)F)c2n1` [compound 74, 5-(2-(Difluoromethoxy)benzyl)-7-(1-(2-fluoro-6-methylphenyl)piperidin-4-yl)-3-methylpyrido[2,3-b]pyrazin-6(5H)-one], with 500 to 5000 nM.
Turning to `Cc1cccc(F)c1N1CCN(c2cc3nccnc3n(Cc3ncccc3C(F)(F)F)c2=O)CC1` [compound 96, 7-(4-(2-Fluoro-6-methylphenyl)piperazin-1-yl)-5-((3-(trifluoromethyl)pyridin-2-yl)methyl)pyrido[2,3-b]pyrazin-6(5H)-one], the IC50 is less than 500 nM.
Turning to `Cc1cccc(F)c1N1CCN(c2c(C)c3nccnc3n(Cc3nccnc3C(F)(F)F)c2=O)CC1` [compound 97, 7-(4-(2-Fluoro-6-methylphenyl)piperazin-1-yl)-8-methyl-5-((3-(trifluoromethyl)pyrazin-2-yl)methyl)pyrido[2,3-b]pyrazin-6(5H)-one], the IC50 fell in the range of 500 to 5000 nM.
On to `Cc1cccc(F)c1N1CCC(c2cc3ncncc3n(Cc3ncccc3C(F)(F)F)c2=O)CC1` [compound 84, 7-(1-(2-Fluoro-6-methylphenyl)piperidin-4-yl)-5-((3-(trifluoromethyl)pyridin-2-yl)methyl)pyrido[3,2-d]pyrimidin-6(5H)-one], for which the IC50 was more than 100000 nM.
Consider `COc1cnc2cc(C3CCN(c4c(C)cccc4F)CC3)c(=O)n(Cc3nccnc3C)c2n1` [compound 112, 7-(1-(2-Fluoro-6-methylphenyl)piperidin-4-yl)-3-methoxy-5-((3-methylpyrazin-2-yl)methyl)pyrido[2,3-b]pyrazin-6(5H)-one], for which the IC50 was in the range of 5000 to 100000 nM.
Regarding `Cc1cnc2cc(C3CCN(c4c(C)cccc4F)CC3)c(=O)n(Cc3ccccc3OC(F)(F)F)c2n1` [compound 78, 7-(1-(2-Fluoro-6-methylphenyl)piperidin-4-yl)-3-methyl-5-(2-(trifluoromethoxy)benzyl)pyrido[2,3-b]pyrazin-6(5H)-one], the IC50 was 500 to 5000 nM.
On the same count and under the same terms, next, `Cc1cccc(F)c1N1CCC(c2cc3ncncc3n(Cc3nccnc3C(F)(F)F)c2=O)CC1` [compound 82, 7-(1-(2-Fluoro-6-methylphenyl)piperidin-4-yl)-5-((3-(trifluoromethyl)pyrazin-2-yl)methyl)pyrido[3,2-d]pyrimidin-6(5H)-one]: more than 100000 nM.
